Test results published in PMC3176802, “Structural Basis for Distinct Binding Properties of the Human Galectins to Thomsen-Friedenreich Antigen” (PLoS ONE, 2011).
Entries after “also recorded” stand apart in the source; their conditions may differ.

Key:
Assay type in all cases: binding
human galectin-1 (Gal-1) [1] = biological target: T1, human galectin-1 (Gal-1) (Homo sapiens, UniProt P09382); assay: ITC assay, ligand titrating native Gal-1; details: Gal-1, 298 K
T1 construct: made in house; host or cells: Escherichia coli BL21 (DE3)
Description: (§1) The delayed time between injections is 180 s. For every ligands, at least three titrations were done. The dissociation constants (Kd) were calculated using the Origin Program and the experimental data were fitted to a one-set-of-sites model.

[2] = biological target: T2, human galectin-3 carbohydrate recognition domain (Gal-3 CRD) (Homo sapiens, UniProt P17931); assay: ITC assay, ligand titrating native Gal-3 CRD; details: 298 K
T2 construct: The molecule used in this study is a truncated CRD domain of Gal-3; made in house; host or cells: Escherichia coli BL21 (DE3)
Description: as §1

[3] = biological target: T3, human galectin-3 CRD (Gal-3 CRD) (Homo sapiens, UniProt P17931); assay: SPR assay, Gal-3 CRD over immobilized biotin labeled GM1; details: immobilized biotin labeled GM1 pentasaccharide, steady state affinity model, 298 K
T3 construct: The molecule used in this study is a truncated CRD domain of Gal-3; made in house; host or cells: Escherichia coli BL21 (DE3)
Description: (§2) Biotin labeled GM1 pentasaccharide (from CFG) was dissolved into PBS buffer and connected covalently onto a streptavidin (SA) chip as the immobilized phase. […] Galectins in the sample buffer (20 mM PBS, pH7.5, 0.005% Tween 20) were as the flowing phase. Analytes with volume of 30 µl at various concentrations ordered from low to high were programmed to inject with a 30 µl/min flow rate under different sensorgrams. In order to correct for instrumental and concentration effects, a blank flow channel was used as reference. Specific binding analyses were identified by subtraction of the control channel. The kinetic analyses of molecular interactions were calculated according to the steady state affinity model by BIAcore T100 Evaluation software.

Gal-3-g1-L4 mutant = biological target: T4, Gal-3-g1-L4 mutant (Homo sapiens, UniProt P17931, E165H/INS164A/N166G/N167D/R168A); assay: SPR assay, Gal-3-g1-L4 over immobilized biotin labeled GM1; details: mutant Gal-3-g1-L4, immobilized biotin labeled GM1 pentasaccharide, steady state affinity model, 298 K
T4 construct: The molecule used in this study is a truncated CRD domain of Gal-3; made in house; host or cells: Escherichia coli BL21 (DE3)
Description: (§3) The mutants, Gal-1-g3-L4 and Gal-3-g1-L4, were designed by exchanging two loops, g1-L4 and g3-L4. These mutants were constructed using Quick Change Site Directed Mutagenesis method, and then the proteins were expressed and purified as above procedures.
as §2

[4] = biological target: T5, Gal-3-g1-L4 (Gal-3 CRD-165AHGDA169) mutant (Homo sapiens, UniProt P17931, E165H/INS164A/N166G/N167D/R168A); assay: ITC assay, ligand titrating mutant Gal-3-g1-L4; details: for N, stochiometry (ITC): stochiometry fixed with a value of 1
T5 construct: The molecule used in this study is a truncated CRD domain of Gal-3; made in house; host or cells: Escherichia coli BL21 (DE3)
Description: as §3, §1

[5] = biological target: T6, Gal-1-g3-L4 (Gal-1-51ENNR54) mutant (Homo sapiens, UniProt P09382, A56R/D55N/DEL52-52/G54N/H53E); assay: ITC assay, ligand titrating mutant Gal-1-g3-L4; details: mutant Gal-1-g3-L4, 298 K; for N, stochiometry (ITC): stochiometry fixed with a value of 1
T6 construct: made in house; host or cells: Escherichia coli BL21 (DE3)
Description: as §3, §1

Gal-1-g3-L4 mutant = biological target: T7, Gal-1-g3-L4 mutant (Homo sapiens, UniProt P09382, A56R/D55N/DEL52-52/G54N/H53E); assay: SPR assay, Gal-1-g3-L4 over immobilized biotin labeled GM1; details: mutant Gal-1-g3-L4, immobilized biotin labeled GM1 pentasaccharide, 298 K
T7 construct: made in house; host or cells: Escherichia coli BL21 (DE3)
Description: as §3, §2

human galectin-1 (Gal-1) [6] = biological target: T1, human galectin-1 (Gal-1); assay: SPR assay, Gal-1 over immobilized biotin labeled GM1; details: Gal-1, immobilized biotin labeled GM1 pentasaccharide, 298 K
Description: as §2

T2 sequence (P17931 118-248 limits assumed): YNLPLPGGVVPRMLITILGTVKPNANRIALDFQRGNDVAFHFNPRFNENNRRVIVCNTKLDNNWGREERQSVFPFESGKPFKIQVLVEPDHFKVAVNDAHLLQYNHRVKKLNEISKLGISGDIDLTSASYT
T5 sequence (P17931 with tags, fused parts or gaps INS164A/E165H/N166G/N167D/R168A): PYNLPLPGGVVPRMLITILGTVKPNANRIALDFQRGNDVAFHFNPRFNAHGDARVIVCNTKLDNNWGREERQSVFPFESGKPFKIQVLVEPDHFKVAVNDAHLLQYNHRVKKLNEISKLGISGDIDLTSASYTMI
T6 sequence (P09382 with tags, fused parts or gaps DEL52-52/H53E/G54N/D55N/A56R): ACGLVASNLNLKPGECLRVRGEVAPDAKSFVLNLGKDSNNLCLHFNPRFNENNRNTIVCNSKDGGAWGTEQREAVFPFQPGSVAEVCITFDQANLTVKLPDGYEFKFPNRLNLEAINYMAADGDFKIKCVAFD
T1 sequence (P09382 whole entry): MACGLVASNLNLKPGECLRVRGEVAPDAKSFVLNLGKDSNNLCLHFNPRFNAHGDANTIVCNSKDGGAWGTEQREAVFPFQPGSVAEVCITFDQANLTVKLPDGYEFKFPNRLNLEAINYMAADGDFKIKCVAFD
T4 sequence (P17931 with tags, fused parts or gaps INS164A/E165H/N166G/N167D/R168A): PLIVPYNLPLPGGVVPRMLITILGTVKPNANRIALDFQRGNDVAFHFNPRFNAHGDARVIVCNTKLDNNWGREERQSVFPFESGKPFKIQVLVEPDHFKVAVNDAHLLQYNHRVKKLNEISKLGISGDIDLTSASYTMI
T3 sequence (P17931 118-248 limits assumed): as the sequence (P17931 118-248 limits assumed) above
T7 sequence (P09382 with tags, fused parts or gaps DEL52-52/H53E/G54N/D55N/A56R): as the sequence (P09382 with tags, fused parts or gaps DEL52-52/H53E/G54N/D55N/A56R) above

-ΔH (ITC) ([2]; Gal-3 CRD) [kcal/mol]	N, stochiometry (ITC) ([2]; Gal-3 CRD)	ΔS (ITC) ([2]; Gal-3 CRD) [cal/mol/deg]	-ΔH (ITC) ([4]; mutant Gal-3-g1-L4, 298 K) [kcal/mol]	Kd ([4]; mutant Gal-3-g1-L4, 298 K) [µM]	ΔS (ITC) ([4]; mutant Gal-3-g1-L4, 298 K) [cal/mol/deg]	N, stochiometry (ITC) ([4]; mutant Gal-3-g1-L4, 298 K)	-ΔH (ITC) [5] [kcal/mol]	Kd [5] [µM]	Kd (ITC) [5]	ΔS (ITC) [5] [cal/mol/deg]	N, stochiometry (ITC) [5]	Compound	Kd (ITC) (human galectin-1 (Gal-1) [1])	other results
1.9	1.04	13.5	–	–	–	–	–	–	–	–	–	Galβ1-3GalNAcα1-O-Ser/Thr [TF antigen]	–	-ΔH (ITC) (human galectin-1 (Gal-1) [1]): 26.3 kcal/mol; Kd (human galectin-1 (Gal-1) [1]): 4000 µM; ΔS (ITC) (human galectin-1 (Gal-1) [1]): −77.2 cal/mol/deg; N, stochiometry (ITC) (human galectin-1 (Gal-1) [1]; stochiometry fixed with a value of 1): 1.00; Kd ([2]; Gal-3 CRD): 47 µM
4.0	1.06	6.0	3.2	415	4.7	1.00	10.3	568	gains the TF-binding ability	−19.8	1.00	CC(=O)N[C@H]1[C@H](O[C@@H]2[C@H](O[C@]3(C(=O)O)C[C@H](O)[C@@H](NC(C)=O)[C@H]([C@H](O)[C@H](O)CO)O3)[C@@H](O)[C@H](O[C@H]3[C@H](O)[C@@H](O)C(O)O[C@@H]3CO)O[C@@H]2CO)O[C@H](CO)[C@H](O)[C@@H]1O[C@@H]1O[C@H](CO)[C@H](O)[C@H](O)[C@H]1O (some centres unmarked) [GM1, Galβ1-3GalNAcβ1-4[NeuAcα2-3]Galβ1-4Glc]	can not recognize and interact; also recorded: does not bind; also recorded: No affinity	Kd [3]: 62 µM; Kd (Gal-3-g1-L4 mutant): 397 µM; Kd (SPR) (Gal-1-g3-L4 mutant): Low affinity; Kd (SPR) (human galectin-1 (Gal-1) [6]): No affinity
4.6	1.21	3.8	3.9	543	1.9	1.00	1.5	719	can bind and interact	9.4	1.00	CC(=O)N[C@H]1[C@@H](Oc2ccc([N+](=O)[O-])cc2)O[C@H](CO)[C@H](O)[C@@H]1O[C@@H]1O[C@H](CO)[C@H](O)[C@H](O)[C@H]1O [TFN, TF p-nitrophenyl]	can not recognize; also recorded: does not bind; also recorded: No affinity	affinity relative to native Gal-3 (ITC) ([2]; native Gal-3 CRD as reference): 100%; Kd (ITC) ([4]; mutant Gal-3-g1-L4, 298 K): very lower affinity; affinity relative to native Gal-3 (ITC) ([4]; mutant Gal-3-g1-L4 compared to native Gal-3, 298 K): 12%
